One molecule from PMC10454728, “A Comparative Study on the Lysosomal Cation Channel TMEM175 Using Automated Whole-Cell Patch-Clamp, Lysosomal Patch-Clamp, and Solid Supported Membrane-Based Electrophysiology: Functional Characterization and High-Throughput Screening Assay Development” (International Journal of Molecular Sciences, 2023) can be followed below.

In the assay the target is T1, TMEM175 (Homo sapiens, UniProt Q9BSA9).
T1 sequence (Q9BSA9 1-504): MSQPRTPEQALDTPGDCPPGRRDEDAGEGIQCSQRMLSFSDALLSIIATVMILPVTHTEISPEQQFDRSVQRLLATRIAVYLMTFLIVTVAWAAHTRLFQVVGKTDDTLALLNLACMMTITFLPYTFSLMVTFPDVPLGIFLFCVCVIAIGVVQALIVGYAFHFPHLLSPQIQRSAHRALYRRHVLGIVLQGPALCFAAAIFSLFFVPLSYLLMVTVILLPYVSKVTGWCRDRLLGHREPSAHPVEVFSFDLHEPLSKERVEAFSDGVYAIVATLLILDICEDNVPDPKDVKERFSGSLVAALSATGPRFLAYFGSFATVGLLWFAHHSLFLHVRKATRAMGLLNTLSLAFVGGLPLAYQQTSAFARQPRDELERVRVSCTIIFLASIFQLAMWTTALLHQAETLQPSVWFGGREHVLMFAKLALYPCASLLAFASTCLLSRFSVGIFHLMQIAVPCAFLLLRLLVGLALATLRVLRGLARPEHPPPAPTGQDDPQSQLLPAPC
The assay can be described thus: SSME cation selectivity assay with 4-AP block (SURFE2R 96SE). Format: biochemical. The conditions noted are these: 10 mM 4-AP. From the text: We performed the same experiment on lysosomes purified from HEK293 cells overexpressing TMEM175 (TMEM175 sample, Figure 2B) and control lysosomes that were purified from HEK293 cells expressing endogenous TMEM175 (control sample, Figure 2C), using a low sample dilution to enhance the signal-to-noise.
We also performed a similar series of experiments on the SURFE^2R 96SE, essentially reproducing the results found with the SURFE^2R N1 (Figure 2E). […] Supplementary Figure S2 contains representative current traces and additional experimental details.
We applied a solution exchange from 50 mM NMDG-Cl to 50 mM of a different Cl salt at pH 7.6; (B) Representative current traces recorded with the TMEM175 sample. All traces are recorded from the same sensor; (C) Representative current traces recorded with the control sample. Currents reflect background signals (artifacts) resulting from ion–membrane interactions; (D) Average peak currents and SD for N = 5 sensors recorded with the TMEM175 and control samples; (E) Average peak currents and SEM for N = 16 sensors, recorded with the TMEM175 (left) and control (right) sample. […]
Ion selectivity of TMEM175 recorded on the SURFE2R 96SE. Representative current traces recorded using different cation species on TMEM175 and control samples using the SURFE2R 96SE. […]

For the molecule `Nc1ccncc1` [4-AP, 4-aminopyridine], the “Block of TMEM175 net currents for K+, Rb+ and Cs+” value is recorded as “complete blockade”.
